In brackets after ≈: the same amount, converted by molar mass. Where two headings read alike, the source gives them in different places.
How the values were obtained:
[1] = system: HT-29 (human colon adenocarcinoma); experiment: Growth inhibition of tumor cell line HT-29 (Table 1); format: cell-based; settings: for IC50: Homo sapiens, HT-29, 144 h, read-out: IC50, concentration inhibiting 50% of the growth of HT-29
P-388 (murine leukemia) = experiment: Growth inhibition of tumor cell line P-388 (Table 1); format: cell-based; settings: for IC50: Mus musculus, P388, 72 h, read-out: IC50, concentration inhibiting 50% of the growth of P-388
[2] = system: KB-16 (human nasopharyngeal carcinoma); experiment: Growth inhibition of tumor cell line KB-16 (Table 1); format: cell-based; settings: for IC50: Homo sapiens, KB16, 72 h, read-out: IC50, concentration inhibiting 50% of the growth of KB-16
[3] = system: A-549 (human lung adenocarcinoma); experiment: Growth inhibition of tumor cell line A-549 (Table 1); format: cell-based; settings: for IC50: Homo sapiens, A549, 144 h, read-out: IC50, concentration inhibiting 50% of the growth of A-549
murine P-388 cells = settings: Sakai et al., J Am Chem Soc 1986; cited from earlier work
[4] = 6 day drug exposure, columns A/B = scaffold type
[5] = 3 day drug exposure, columns A/B = scaffold type

Molecule	IC50 [1, 4]	IC50 (P-388 (murine leukemia); [5])	IC50 [2, 5]	IC50 [3, 4]	further results
CC(=O)O[C@H]1C(=O)[C@@]2(C)[C@H]([C@H](OC(=O)c3ccccc3)[C@]3(O)C[C@H](OC(=O)[C@H](O)[C@@H](NC(=O)c4ccccc4)c4ccccc4)C(C)=C1C3(C)C)[C@]1(OC(C)=O)CO[C@@H]1C[C@@H]2O [Compound 30, paclitaxel, reference compound]	< 0.001 µg/mL	< 0.001 µg/mL	< 0.001 µg/mL	< 0.001 µg/mL	
COc1cc(OC)cc(C2NCCc3c2[nH]c2ccccc32)c1 (stereo not drawn) [Compound 12, 1-(3′,5′-Dimethoxyphenyl)-1,2,3,4-tetrahydro-β-carboline]	0.4 µg/mL (≈ 1.3 µM)	0.2 µg/mL (≈ 0.649 µM)	1.4 µg/mL (≈ 4.54 µM)	0.6 µg/mL (≈ 1.95 µM)	
COc1cc(OC)cc(C2=NCCc3c2[nH]c2ccccc32)c1 [Compound 25, 1-(3′,5′-Dimethoxyphenyl)-3,4-dihydro-β-carboline]	0.6 µg/mL (≈ 1.96 µM)	0.4 µg/mL (≈ 1.31 µM)	1 µg/mL (≈ 3.26 µM)	0.6 µg/mL (≈ 1.96 µM)	
CCN(CC)c1ccc(C2=NCCc3c2[nH]c2ccccc32)cc1 [Compound 21, 1-(4′-Diethylaminophenyl)-3,4-dihydro-β-carboline]	1.3 µg/mL (≈ 4.1 µM)	0.7 µg/mL (≈ 2.21 µM)	0.3 µg/mL (≈ 0.945 µM)	1.8 µg/mL (≈ 5.67 µM)	
COc1cc(C2=NCCc3c2[nH]c2ccccc32)cc(OC)c1OC [Compound 26, 1-(3′,4′,5′-Trimethoxyphenyl)-3,4-dihydro-β-carboline]	0.7 µg/mL (≈ 2.08 µM)	1.2 µg/mL (≈ 3.57 µM)	1.4 µg/mL (≈ 4.16 µM)	0.5 µg/mL (≈ 1.49 µM)	
Brc1ccc(C2NCCc3c2[nH]c2ccccc32)cc1 (stereo not drawn) [Compound 5, 1-(4′-Bromophenyl)-1,2,3,4-tetrahydro-β-carboline]	1.1 µg/mL (≈ 3.36 µM)	1 µg/mL (≈ 3.06 µM)	2.1 µg/mL (≈ 6.42 µM)	3 µg/mL (≈ 9.17 µM)	
O=[N+]([O-])c1ccc(C2NCCc3c2[nH]c2ccccc32)cc1 (stereo not drawn) [Compound 6, 1-(4′-Nitrophenyl)-1,2,3,4-tetrahydro-β-carboline]	1.5 µg/mL (≈ 5.11 µM)	0.8 µg/mL (≈ 2.73 µM)	1.1 µg/mL (≈ 3.75 µM)	0.9 µg/mL (≈ 3.07 µM)	
O=[N+]([O-])c1cc(C2NCCc3c2[nH]c2ccccc32)cc2c1OCO2 (stereo not drawn) [Compound 14, 1-(3′-Nitroz4′-Benzo-1″,3″-dioxole)-1,2,3,4-tetrahydro-β-carboline]					IC50, concentration inhibiting 50% of the growth of HT-29 [1, 4]: 1.4 µg/mL; IC50, concentration inhibiting 50% of the growth of P-388 (P-388 (murine leukemia); [5]): 0.3 µg/mL; IC50, concentration inhibiting 50% of the growth of KB-16 [2, 5]: 6.0 µg/mL; IC50, concentration inhibiting 50% of the growth of A-549 [3, 4]: 1.7 µg/mL
1-(3′-Nitro-4′-Benzo-1″,3″-dioxole)-3,4-dihydro-β-carboline [Compound 27]					IC50, concentration inhibiting 50% of the growth of HT-29 [1, 4]: 1.0 µg/mL; IC50, concentration inhibiting 50% of the growth of P-388 (P-388 (murine leukemia); [5]): 0.3 µg/mL; IC50, concentration inhibiting 50% of the growth of KB-16 [2, 5]: 0.8 µg/mL; IC50, concentration inhibiting 50% of the growth of A-549 [3, 4]: 0.6 µg/mL
c1ccc2c(c1)Cc1cc(C3NCCc4c3[nH]c3ccccc43)ccc1-2 (stereo not drawn) [Compound 15, 1-(2′-Fluorenyl)-1,2,3,4-tetrahydro-β-carboline]					IC50, concentration inhibiting 50% of the growth of HT-29 [1, 4]: 0.5 µg/mL; IC50, concentration inhibiting 50% of the growth of P-388 (P-388 (murine leukemia); [5]): 0.1 µg/mL; IC50, concentration inhibiting 50% of the growth of KB-16 [2, 5]: 0.4 µg/mL; IC50, concentration inhibiting 50% of the growth of A-549 [3, 4]: 0.6 µg/mL
COc1ccc(C2=NCCc3c2[nH]c2ccccc32)c(OC)c1 [Compound 22, 1-(2′,4′-Dimethoxyphenyl)-3,4-dihydro-β-carboline]	0.5 µg/mL (≈ 1.63 µM)	0.6 µg/mL (≈ 1.96 µM)	2.7 µg/mL (≈ 8.81 µM)	0.5 µg/mL (≈ 1.63 µM)	
COc1ccc(C2NCCc3c2[nH]c2ccccc32)cc1OC (stereo not drawn) [Compound 10, 1-(3′,4′-Dimethoxyphenyl)-1,2,3,4-tetrahydro-β-carboline]	> 50 µg/mL	2.8 µg/mL (≈ 9.08 µM)	> 50 µg/mL	> 50 µg/mL	
CCN(CC)c1ccc(C2NCCc3c2[nH]c2ccccc32)cc1 (stereo not drawn) [Compound 8, 1-(4′-N-Diethylaminophenyl)-1,2,3,4-tetrahydro-β-carboline]					IC50, concentration inhibiting 50% of the growth of HT-29 [1, 4]: 1.1 µg/mL; IC50, concentration inhibiting 50% of the growth of P-388 (P-388 (murine leukemia); [5]): 0.07 µg/mL; IC50, concentration inhibiting 50% of the growth of KB-16 [2, 5]: 0.2 µg/mL; IC50, concentration inhibiting 50% of the growth of A-549 [3, 4]: 1.1 µg/mL
COc1ccc(C2NCCc3c2[nH]c2ccccc32)c(OC)c1 (stereo not drawn) [Compound 9, 1-(2′,4′-Dimethoxyphenyl)-1,2,3,4-tetrahydro-β-carboline]	1.1 µg/mL (≈ 3.57 µM)	0.6 µg/mL (≈ 1.95 µM)	0.7 µg/mL (≈ 2.27 µM)	1.1 µg/mL (≈ 3.57 µM)	
COc1cc(C2NCCc3c2[nH]c2ccccc32)cc(OC)c1OC (stereo not drawn) [Compound 13, 1-(3′,4′,5′-Trimethoxyphenyl)-1,2,3,4-tetrahydro-β-carboline]	1.6 µg/mL (≈ 4.73 µM)	1.2 µg/mL (≈ 3.55 µM)	8.3 µg/mL (≈ 24.5 µM)	2 µg/mL (≈ 5.91 µM)	
COc1ccc(OC)c(C2=NCCc3c2[nH]c2ccccc32)c1 [Compound 24, 1-(2′,5′-Dimethoxyphenyl)-3,4-dihydro-β-carboline]	0.4 µg/mL (≈ 1.31 µM)	1.1 µg/mL (≈ 3.59 µM)	0.7 µg/mL (≈ 2.28 µM)	0.2 µg/mL (≈ 0.653 µM)	
CN(C)c1ccc(C2NCCc3c2[nH]c2ccccc32)cc1 (stereo not drawn) [Compound 7, 1-(4′-Dimethylaminophenyl)-1,2,3,4-tetrahydro-β-carboline]	0.7 µg/mL (≈ 2.4 µM)	2.2 µg/mL (≈ 7.55 µM)	1.7 µg/mL (≈ 5.83 µM)	1.6 µg/mL (≈ 5.49 µM)	
O[C@]12C=C(c3nccc4c3[nH]c3ccccc34)[C@@H]3CCN(CCCC/C=C\CC1)C[C@@]31C[C@@H]3/C=C\CCCCN3[C@@H]12 [Compound 3, manzamine A, reference compound]					IC50 [1]: 0.1 µg/mL (≈ 0.182 µM); IC50 (P-388 (murine leukemia)): 0.07 µg/mL (≈ 0.128 µM); cytotoxicity against murine P-388 cells (murine P-388 cells): 0.07 µg/mL; IC50 [2]: < 0.001 µg/mL; IC50 [3]: 0.03 µg/mL (≈ 0.0547 µM)
COc1ccc(C2=NCCc3c2[nH]c2ccccc32)cc1OC [Compound 23, 1-(3′,4′-Dimethoxyphenyl)-3,4-dihydro-β-carboline]	2.7 µg/mL (≈ 8.81 µM)	2.7 µg/mL (≈ 8.81 µM)	15 µg/mL (≈ 49 µM)	12 µg/mL (≈ 39.2 µM)	
COc1ccc(OC)c(C2NCCc3c2[nH]c2ccccc32)c1 (stereo not drawn) [Compound 11, 1-(2′,5′-Dimethoxyphenyl)-1,2,3,4-tetrahydro-β-carboline]	2.2 µg/mL (≈ 7.13 µM)	2.6 µg/mL (≈ 8.43 µM)	3.7 µg/mL (≈ 12 µM)	2 µg/mL (≈ 6.49 µM)	
CCn1c2ccccc2c2cc(C3NCCc4c3[nH]c3ccccc43)ccc21 (stereo not drawn) [Compound 16, 1-(9′-Ethyl-3′-carbazole)-1,2,3,4-tetrahydro-β-carboline]					IC50, concentration inhibiting 50% of the growth of HT-29 [1, 4]: 0.5 µg/mL; IC50, concentration inhibiting 50% of the growth of P-388 (P-388 (murine leukemia); [5]): 0.7 µg/mL; IC50, concentration inhibiting 50% of the growth of KB-16 [2, 5]: 0.8 µg/mL; IC50, concentration inhibiting 50% of the growth of A-549 [3, 4]: 0.8 µg/mL
1-(2′-Fluorenyl)-3,4-dihydro-β-carboline [Compound 28]					IC50, concentration inhibiting 50% of the growth of HT-29 [1, 4]: 0.7 µg/mL; IC50, concentration inhibiting 50% of the growth of P-388 (P-388 (murine leukemia); [5]): 0.1 µg/mL; IC50, concentration inhibiting 50% of the growth of KB-16 [2, 5]: 1.4 µg/mL; IC50, concentration inhibiting 50% of the growth of A-549 [3, 4]: 0.6 µg/mL
Clc1ccc(C2NCCc3c2[nH]c2ccccc32)cc1 (stereo not drawn) [Compound 4, 1-(4′-Chlorophenyl)-1,2,3,4-tetrahydro-β-carboline]	0.9 µg/mL (≈ 3.18 µM)	0.2 µg/mL (≈ 0.707 µM)	0.7 µg/mL (≈ 2.48 µM)	0.6 µg/mL (≈ 2.12 µM)	
CN(C)c1ccc(C2=NCCc3c2[nH]c2ccccc32)cc1 [Compound 20, 1-(4′-Dimethylaminophenyl)-3,4-dihydro-β-carboline]	3 µg/mL (≈ 10.4 µM)	2.9 µg/mL (≈ 10 µM)	4.8 µg/mL (≈ 16.6 µM)	50 µg/mL (≈ 173 µM)	
